In patent US20220175768A1, “FGFR TYROSINE KINASE INHIBITORS FOR THE TREATMENT OF UROTHELIAL CARCINOMA” (Janssen Pharmaceutica NV, priority 2019, published 2022):

[1] = 10 mg intermittent, regimen 1 (n = 33)

Protocol: Study treatment was administered on 28-day cycles. Prior to interim analysis 1, there were 2 treatment regimens. Patients were randomized 1:1 to 28-day cycles to the following 2 regimens until a regimen was selected for further study: Regimen 1 (10 mg once daily intermittent (7 days on/7 days); Regimen 2 (6 mg once daily continuous). Randomization was stratified according to performance status (0 to 1 vs. 2), hemoglobin value (<10 vs. ≥10 g per dl), FGFR alteration type (mutation vs. fusion), prior treatment status (chemotherapy-resistant vs. chemotherapy naïve), and disease distribution (presence or absence of visceral [liver, lung, bone] metastases). Starting dose selection was based on phase 1 efficacy and tolerability.
Thus, after interim analysis, this became a single-arm study. […] Treatment continued until disease progression or unacceptable adverse event(s) per investigator.
All objective responses required confirmation by an additional investigator assessment within 4 to 6 weeks of first assessment. Disease evaluations for regimen 3 were also performed by an independent radiographic review committee. […] Safety was evaluated based on clinical laboratory tests, physical exams, electrocardiograms, and ophthalmology examinations. Adverse events and abnormalities were assessed by investigator and graded per NCI CTCAE v.4.0
Prophylactic measures were taken to minimize risk of common adverse events related to FGFR inhibition. To reduce risk of hyperphosphatemia, a low-phosphate diet was recommended for all patients (600 to 800 mg of dietary phosphate intake per day). To reduce the risk of skin effects, the application of alcohol-free emollient moisturizing cream and avoidance of unnecessary exposure to sunlight, soap, perfumed products, and hot baths was recommended. Patients were asked to keep their fingers and toes clean and nails trimmed to reduce risk of nail effects.
Additional ophthalmology examinations were performed if clinically indicated.

COc1cc(OC)cc(N(CCNC(C)C)c2ccc3ncc(-c4cnn(C)c4)nc3c2)c1 [erdafitinib, N-(3,5-dimethoxy-phenyl)-N′-(1-methylethyl)-N-[3-(1-methyl-1H-pyrazol-4-yl)quinoxalin-6-yl]ethane-1,2-diamine]
Patients with Hematuria, Grade ≥3 [1]: 0 no. (%)
Patients with Hyperphosphatemia, Any grade [1]: 16 (48) no. (%)
Patients with Hyperphosphatemia, Grade 1 [1]: 15 (46) no. (%)
Patients with Hyperphosphatemia, Grade 2 [1]: 1 (3) no. (%)
Patients with Hyperphosphatemia, Grade ≥3 [1]: 0 no. (%)
Patients with Hypomagnesemia, Any grade [1]: 2 (6) no. (%)
Patients with Hypomagnesemia, Grade 1 [1]: 2 (6) no. (%)
Patients with Hypomagnesemia, Grade 2 [1]: 0 no. (%)
Patients with Hypomagnesemia, Grade ≥3 [1]: 0 no. (%)
Patients with Hyponatremia, Any grade [1]: 2 (6) no. (%)
Patients with Hyponatremia, Grade 1 [1]: 0 no. (%)
Patients with Hyponatremia, Grade 2 [1]: 0 no. (%)
Patients with Hyponatremia, Grade ≥3 [1]: 2 (6) no. (%)
Patients with Insomnia, Any grade [1]: 3 (9) no. (%)
Patients with Insomnia, Grade 1 [1]: 0 no. (%)
Patients with Insomnia, Grade 2 [1]: 3 (9) no. (%)
Patients with Insomnia, Grade ≥3 [1]: 0 no. (%)
Patients with Lacrimation increased, Any grade [1]: 6 (18) no. (%)
Patients with Lacrimation increased, Grade 1 [1]: 5 (15) no. (%)
Patients with Lacrimation increased, Grade 2 [1]: 1 (3) no. (%)
Patients with Lacrimation increased, Grade ≥3 [1]: 0 no. (%)
Patients with Nail dystrophy, Any grade [1]: 2 (6) no. (%)
Patients with Nail dystrophy, Grade 1 [1]: 2 (6) no. (%)
Patients with Nail dystrophy, Grade 2 [1]: 0 no. (%)
Patients with Nail dystrophy, Grade ≥3 [1]: 0 no. (%)
Patients with Nausea, Any grade [1]: 5 (15) no. (%)
Patients with Nausea, Grade 1 [1]: 3 (9) no. (%)
Patients with Nausea, Grade 2 [1]: 2 (6) no. (%)
Patients with Nausea, Grade ≥3 [1]: 0 no. (%)
Patients with Onycholysis, Any grade [1]: 7 (21) no. (%)
Patients with Onycholysis, Grade 1 [1]: 3 (9) no. (%)
Patients with Onycholysis, Grade 2 [1]: 3 (9) no. (%)
Patients with Onycholysis, Grade ≥3 [1]: 1 (3) no. (%)
Patients with Onychomadesis, Any grade [1]: 1 (3) no. (%)
Patients with Onychomadesis, Grade 1 [1]: 1 (3) no. (%)
Patients with Onychomadesis, Grade 2 [1]: 0 no. (%)
Patients with Onychomadesis, Grade ≥3 [1]: 0 no. (%)
Patients with Oropharyngeal pain, Any grade [1]: 0 no. (%)
Patients with Oropharyngeal pain, Grade 1 [1]: 0 no. (%)
Patients with Oropharyngeal pain, Grade 2 [1]: 0 no. (%)
Patients with Oropharyngeal pain, Grade ≥3 [1]: 0 no. (%)
Patients with Pain in extremity, Any grade [1]: 5 (15) no. (%)
Patients with Pain in extremity, Grade 1 [1]: 3 (9) no. (%)
Patients with Pain in extremity, Grade 2 [1]: 1 (3) no. (%)
Patients with Pain in extremity, Grade ≥3 [1]: 1 (3) no. (%)
Patients with Paronychia, Any grade [1]: 2 (6) no. (%)
Patients with Paronychia, Grade 1 [1]: 0 no. (%)
Patients with Paronychia, Grade 2 [1]: 2 (6) no. (%)
Patients with Paronychia, Grade ≥3 [1]: 0 no. (%)
Patients with Peripheral edema, Any grade [1]: 5 (15) no. (%)
Patients with Peripheral edema, Grade 1 [1]: 1 (3) no. (%)
Patients with Peripheral edema, Grade 2 [1]: 4 (12) no. (%)
Patients with Peripheral edema, Grade ≥3 [1]: 0 no. (%)
Patients with Pyrexia, Any grade [1]: 5 (15) no. (%)
Patients with Pyrexia, Grade 1 [1]: 5 (15) no. (%)
Patients with Pyrexia, Grade 2 [1]: 0 no. (%)
Patients with Pyrexia, Grade ≥3 [1]: 0 no. (%)
Patients with Retinal detachment, Any grade [1]: 2 (6) no. (%)
Patients with Retinal detachment, Grade 1 [1]: 1 (3) no. (%)
Patients with Retinal detachment, Grade 2 [1]: 1 (3) no. (%)
Patients with Retinal detachment, Grade ≥3 [1]: 0 no. (%)
Patients with Stomatitis, Any grade [1]: 16 (48) no. (%)
Patients with Stomatitis, Grade 1 [1]: 9 (27) no. (%)
Patients with Stomatitis, Grade 2 [1]: 6 (18) no. (%)
Patients with Stomatitis, Grade ≥3 [1]: 1 (3) no. (%)
Patients with Urinary tract infection, Any grade [1]: 4 (12) no. (%)
Patients with Urinary tract infection, Grade 1 [1]: 0 no. (%)
Patients with Urinary tract infection, Grade 2 [1]: 2 (6) no. (%)
Patients with Urinary tract infection, Grade ≥3 [1]: 2 (6) no. (%)
Patients with Vision blurred, Any grade [1]: 5 (15) no. (%)
Patients with Vision blurred, Grade 1 [1]: 4 (12) no. (%)
Patients with Vision blurred, Grade 2 [1]: 1 (3) no. (%)
Patients with Vision blurred, Grade ≥3 [1]: 0 no. (%)
Patients with Vomiting, Any grade [1]: 9 (27) no. (%)
Patients with Vomiting, Grade 1 [1]: 7 (21) no. (%)
Patients with Vomiting, Grade 2 [1]: 2 (6) no. (%)
Patients with Vomiting, Grade ≥3 [1]: 0 no. (%)
Patients with Weight decreased, Any grade [1]: 3 (9) no. (%)
Patients with Weight decreased, Grade 1 [1]: 1 (3) no. (%)
Patients with Weight decreased, Grade 2 [1]: 2 (6) no. (%)
Patients with Weight decreased, Grade ≥3 [1]: 0 no. (%)
Serious treatment-emergent adverse event: Nervous system disorders [1]: 0 no.
Serious treatment-emergent adverse event: Urinary tract infection [1]: 0 no.
Serious treatment-emergent adverse event: Urosepsis [1]: 0 no.
Treatment-related adverse event: Alopecia, Any grade [1]: 3 (9) no. (%)
Treatment-related adverse event: Alopecia, Grade 1 [1]: 1 (3) no. (%)
Treatment-related adverse event: Alopecia, Grade 2 [1]: 2 (6) no. (%)
Treatment-related adverse event: Alopecia, Grade ≥3 [1]: 0 no. (%)
Treatment-related adverse event: Asthenia, Any grade [1]: 6 (18) no. (%)
Treatment-related adverse event: Asthenia, Grade 1 [1]: 2 (6) no. (%)
Treatment-related adverse event: Asthenia, Grade 2 [1]: 2 (6) no. (%)
Treatment-related adverse event: Asthenia, Grade ≥3 [1]: 2 (6) no. (%)
Treatment-related adverse event: Conjunctivitis, Any grade [1]: 4 (12) no. (%)
Treatment-related adverse event: Conjunctivitis, Grade 1 [1]: 3 (9) no. (%)
Treatment-related adverse event: Conjunctivitis, Grade 2 [1]: 1 (3) no. (%)
Treatment-related adverse event: Conjunctivitis, Grade ≥3 [1]: 0 no. (%)
Treatment-related adverse event: Decreased appetite, Any grade [1]: 6 (18) no. (%)
Treatment-related adverse event: Decreased appetite, Grade 1 [1]: 2 (6) no. (%)
Treatment-related adverse event: Decreased appetite, Grade 2 [1]: 4 (12) no. (%)
Treatment-related adverse event: Decreased appetite, Grade ≥3 [1]: 0 no. (%)
Treatment-related adverse event: Diarrhea, Any grade [1]: 13 (39) no. (%)
Treatment-related adverse event: Diarrhea, Grade 1 [1]: 7 (21) no. (%)
Treatment-related adverse event: Diarrhea, Grade 2 [1]: 5 (15) no. (%)
Treatment-related adverse event: Diarrhea, Grade ≥3 [1]: 1 (3) no. (%)
Treatment-related adverse event: Dry mouth, Any grade [1]: 14 (42) no. (%)
Treatment-related adverse event: Dry mouth, Grade 1 [1]: 13 (39) no. (%)
Treatment-related adverse event: Dry mouth, Grade 2 [1]: 1 (3) no. (%)
Treatment-related adverse event: Dry mouth, Grade ≥3 [1]: 0 no. (%)
Treatment-related adverse event: Dry skin, Any grade [1]: 8 (24) no. (%)
Treatment-related adverse event: Dry skin, Grade 1 [1]: 7 (21) no. (%)
Treatment-related adverse event: Dry skin, Grade 2 [1]: 1 (3) no. (%)
Treatment-related adverse event: Dry skin, Grade ≥3 [1]: 0 no. (%)
Treatment-related adverse event: Dysgeusia, Any grade [1]: 10 (30) no. (%)
Treatment-related adverse event: Dysgeusia, Grade 1 [1]: 7 (21) no. (%)
Treatment-related adverse event: Dysgeusia, Grade 2 [1]: 3 (9) no. (%)
Treatment-related adverse event: Dysgeusia, Grade ≥3 [1]: 0 no. (%)
Treatment-related adverse event: Fatigue, Any grade [1]: 4 (12) no. (%)
Treatment-related adverse event: Fatigue, Grade 1 [1]: 2 (6) no. (%)
Treatment-related adverse event: Fatigue, Grade 2 [1]: 2 (6) no. (%)
Treatment-related adverse event: Fatigue, Grade ≥3 [1]: 0 no. (%)
Treatment-related adverse event: Hand-foot syndrome, Any grade [1]: 2 (6) no. (%)
Treatment-related adverse event: Hand-foot syndrome, Grade 1 [1]: 0 no. (%)
Treatment-related adverse event: Hand-foot syndrome, Grade 2 [1]: 2 (6) no. (%)
Treatment-related adverse event: Hand-foot syndrome, Grade ≥3 [1]: 0 no. (%)
Treatment-related adverse event: Hyperphosphatemia, Any grade [1]: 15 (46) no. (%)
Treatment-related adverse event: Hyperphosphatemia, Grade 1 [1]: 14 (42) no. (%)
Treatment-related adverse event: Hyperphosphatemia, Grade 2 [1]: 1 (3) no. (%)
Treatment-related adverse event: Hyperphosphatemia, Grade ≥3 [1]: 0 no. (%)
Treatment-related adverse event: Lacrimation increased, Any grade [1]: 4 (12) no. (%)
Treatment-related adverse event: Lacrimation increased, Grade 1 [1]: 4 (12) no. (%)
Treatment-related adverse event: Lacrimation increased, Grade 2 [1]: 0 no. (%)
Treatment-related adverse event: Lacrimation increased, Grade ≥3 [1]: 0 no. (%)
Treatment-related adverse event: Nausea, Any grade [1]: 5 (15) no. (%)
Treatment-related adverse event: Nausea, Grade 1 [1]: 3 (9) no. (%)
Treatment-related adverse event: Nausea, Grade 2 [1]: 2 (6) no. (%)
Treatment-related adverse event: Nausea, Grade ≥3 [1]: 0 no. (%)
Treatment-related adverse event: Onycholysis, Any grade [1]: 6 (18) no. (%)
Treatment-related adverse event: Onycholysis, Grade 1 [1]: 2 (6) no. (%)
Treatment-related adverse event: Onycholysis, Grade 2 [1]: 3 (9) no. (%)
Treatment-related adverse event: Onycholysis, Grade ≥3 [1]: 1 (3) no. (%)
Treatment-related adverse event: Onychomadesis, Any grade [1]: 1 (3) no. (%)
Treatment-related adverse event: Onychomadesis, Grade 1 [1]: 1 (3) no. (%)
Treatment-related adverse event: Onychomadesis, Grade 2 [1]: 0 no. (%)
Treatment-related adverse event: Onychomadesis, Grade ≥3 [1]: 0 no. (%)
Treatment-related adverse event: Paronychia, Any grade [1]: 2 (6) no. (%)
Treatment-related adverse event: Paronychia, Grade 1 [1]: 0 no. (%)
Treatment-related adverse event: Paronychia, Grade 2 [1]: 2 (6) no. (%)
Treatment-related adverse event: Paronychia, Grade ≥3 [1]: 0 no. (%)
Treatment-related adverse event: Retinal detachment, Any grade [1]: 2 (6) no. (%)
Treatment-related adverse event: Retinal detachment, Grade 1 [1]: 1 (3) no. (%)
Treatment-related adverse event: Retinal detachment, Grade 2 [1]: 1 (3) no. (%)
Treatment-related adverse event: Retinal detachment, Grade ≥3 [1]: 0 no. (%)
Treatment-related adverse event: Stomatitis, Any grade [1]: 16 (49) no. (%)
Treatment-related adverse event: Stomatitis, Grade 1 [1]: 9 (27) no. (%)
Treatment-related adverse event: Stomatitis, Grade 2 [1]: 6 (18) no. (%)
Treatment-related adverse event: Stomatitis, Grade ≥3 [1]: 1 (3) no. (%)
Treatment-related adverse event: Vision blurred, Any grade [1]: 5 (15) no. (%)
Treatment-related adverse event: Vision blurred, Grade 1 [1]: 4 (12) no. (%)
Treatment-related adverse event: Vision blurred, Grade 2 [1]: 1 (3) no. (%)
Treatment-related adverse event: Vision blurred, Grade ≥3 [1]: 0 no. (%)
Patients who required ≥1 dose reduction (41 patients of the 8 mg regimen uptitrated to 9 mg per day): 59%
Hyperphosphatemia leading to dose reduction (Regimen 3): 9%
Hyperphosphatemia reported (Regimen 3): 77%
Patients discontinued due to treatment-emergent adverse events (Regimen 3): 13%
Patients who required dose reduction (Regimen 3): 56%
Stomatitis leading to dose reduction (Regimen 3): 16%
Treatment-emergent adverse events grade 3 or 4 (Regimen 3): 67%
Central serious retinopathy events resolved (all unresolved events were grade 1 or 2): Seventy-six
Hyperphosphatemia managed by dose interruption (in vivo): 23%
Time of peak phosphate elevation after erdafitinib initiation (normalized by cycle 5): 6 weeks
Patients with grade ≥3 treatment-emergent adverse events (overall trial population): 66%
Patients with grade 1 or 2 events among patients with eye disorders (patients with eye disorders (n=62)): 84%
